Measured values published in ChEMBL document CHEMBL3885881, “DrugMatrix”.

Species on record: Rattus norvegicus
Type: toxicity, organism-based, Sprague-Dawley
Settings: in vivo, ip, 24 h, route intraperitoneal, time 1 day, vehicle 100 % SALINE; for ABSOLUTE EOSINOPHIL / ABSOLUTE LYMPHOCYTE / ABSOLUTE MONOCYTE / ABSOLUTE SEGMENTED NEUTROPHIL / BASOPHIL / EOSINOPHIL / ERYTHROCYTE COUNT / HEMATOCRIT / HEMOGLOBIN / LEUKOCYTE COUNT / LYMPHOCYTE / MEAN CORPUSCULAR HEMOGLOBIN / MEAN CORPUSCULAR HEMOGLOBIN CONCENTRATION / MEAN CORPUSCULAR VOLUME / MONOCYTE / NEUTROPHIL / NUCLEATED RED BLOOD CELLS / PLATELET COUNT: tissue Blood; for ALANINE AMINOTRANSFERASE / ALKALINE PHOSPHATASE / ASPARTATE AMINOTRANSFERASE / BLOOD UREA NITROGEN / CARBON DIOXIDE / CHLORIDE / CHOLESTEROL / CREATININE / GLUCOSE / LACTATE DEHYDROGENASE / LIPASE / PHOSPHORUS / POTASSIUM / SODIUM / TOTAL BILIRUBIN / TOTAL PROTEIN / URIC ACID: tissue Plasma
[1] = 0 mg/kg, vehicle control, dose level Control

Description: DrugMatrix - Regimen: Single

CC[C@H]1CN2CCc3cc(OC)c(OC)cc3[C@@H]2C[C@@H]1C[C@H]1NCCc2cc(OC)c(OC)cc21 [EMETINE]
ABSOLUTE EOSINOPHIL [1]: 77.5 CELLS/uL | ABSOLUTE LYMPHOCYTE [1]: 12568.83 CELLS/uL | ABSOLUTE MONOCYTE [1]: 704.67 CELLS/uL | ABSOLUTE SEGMENTED NEUTROPHIL [1]: 2365.67 CELLS/uL | BASOPHIL [1]: 0% | EOSINOPHIL [1]: 0.5% | ERYTHROCYTE COUNT [1]: 5.83 x10E6/uL | HEMATOCRIT [1]: 36.08% | HEMOGLOBIN [1]: 13.22 G/DL | LEUKOCYTE COUNT [1]: 15.72 x10E3/uL | LYMPHOCYTE [1]: 80% | MEAN CORPUSCULAR HEMOGLOBIN [1]: 22.68 pg | MEAN CORPUSCULAR HEMOGLOBIN CONCENTRATION [1]: 36.63 G/DL | MEAN CORPUSCULAR VOLUME [1]: 61.88 fL | MONOCYTE [1]: 4.5% | NEUTROPHIL [1]: 15% | NUCLEATED RED BLOOD CELLS [1]: 0 /100WBC | PLATELET COUNT [1]: 1020.5 x10E3/uL | ALANINE AMINOTRANSFERASE [1]: 43.33 u/L | ALKALINE PHOSPHATASE [1]: 368 u/L | ASPARTATE AMINOTRANSFERASE [1]: 93 u/L | BLOOD UREA NITROGEN [1]: 12.33 mg/dL | CARBON DIOXIDE [1]: 27.17 mmol/L | CHLORIDE [1]: 99.5 MEQ/L | CHOLESTEROL [1]: 65.67 mg/dL | CREATININE [1]: 0.23 mg/dL | GLUCOSE [1]: 181.67 mg/dL | LACTATE DEHYDROGENASE [1]: 380.17 u/L | LIPASE [1]: 9.33 u/L | PHOSPHORUS [1]: 13.1 mg/dL | POTASSIUM [1]: 6.28 MEQ/L | SODIUM [1]: 143.03 MEQ/L | TOTAL BILIRUBIN [1]: 0.18 mg/dL | TOTAL PROTEIN [1]: 6.12 G/DL | URIC ACID [1]: 2.47 mg/dL | ABSOLUTE EOSINOPHIL (1 mg/kg, dose level High): 92 CELLS/uL | ABSOLUTE LYMPHOCYTE (1 mg/kg, dose level High): 11430 CELLS/uL | ABSOLUTE MONOCYTE (1 mg/kg, dose level High): 510 CELLS/uL | ABSOLUTE SEGMENTED NEUTROPHIL (1 mg/kg, dose level High): 1901.33 CELLS/uL | BASOPHIL (1 mg/kg, dose level High): 0% | EOSINOPHIL (1 mg/kg, dose level High): 0.67% | ERYTHROCYTE COUNT (1 mg/kg, dose level High): 5.8 x10E6/uL | HEMATOCRIT (1 mg/kg, dose level High): 35.23% | HEMOGLOBIN (1 mg/kg, dose level High): 12.63 G/DL | LEUKOCYTE COUNT (1 mg/kg, dose level High): 13.93 x10E3/uL | LYMPHOCYTE (1 mg/kg, dose level High): 82% | MEAN CORPUSCULAR HEMOGLOBIN (1 mg/kg, dose level High): 21.77 pg | MEAN CORPUSCULAR HEMOGLOBIN CONCENTRATION (1 mg/kg, dose level High): 35.87 G/DL | MEAN CORPUSCULAR VOLUME (1 mg/kg, dose level High): 60.83 fL | MONOCYTE (1 mg/kg, dose level High): 3.67% | NEUTROPHIL (1 mg/kg, dose level High): 13.67% | NUCLEATED RED BLOOD CELLS (1 mg/kg, dose level High): 0 /100WBC | PLATELET COUNT (1 mg/kg, dose level High): 1110.67 x10E3/uL | ALANINE AMINOTRANSFERASE (1 mg/kg, dose level High): 45.67 u/L | ALKALINE PHOSPHATASE (1 mg/kg, dose level High): 344 u/L | ASPARTATE AMINOTRANSFERASE (1 mg/kg, dose level High): 124 u/L | BLOOD UREA NITROGEN (1 mg/kg, dose level High): 13.33 mg/dL | CARBON DIOXIDE (1 mg/kg, dose level High): 27 mmol/L | CHLORIDE (1 mg/kg, dose level High): 100 MEQ/L | CHOLESTEROL (1 mg/kg, dose level High): 66.67 mg/dL | CREATININE (1 mg/kg, dose level High): 0.22 mg/dL | GLUCOSE (1 mg/kg, dose level High): 182 mg/dL | LACTATE DEHYDROGENASE (1 mg/kg, dose level High): 467.33 u/L | LIPASE (1 mg/kg, dose level High): 9.33 u/L | PHOSPHORUS (1 mg/kg, dose level High): 14.17 mg/dL | POTASSIUM (1 mg/kg, dose level High): 6.56 MEQ/L | SODIUM (1 mg/kg, dose level High): 143.9 MEQ/L | TOTAL BILIRUBIN (1 mg/kg, dose level High): 0.17 mg/dL | TOTAL PROTEIN (1 mg/kg, dose level High): 6.07 G/DL | URIC ACID (1 mg/kg, dose level High): 2.17 mg/dL
